The source of these data is patent US6469138B1, “Thrombospondin receptor binding peptides” (Washington University, priority 1993, dated 2002).

Entries after “also recorded” stand apart in the source; their conditions may differ. Where a SMILES comes first, the peptide text is derived from it. Where no end group is shown, it is not given here. A value given as a limit tells only on which side of the number the result lay.

For data set [1], the system named is G361 cells. Nature of the data set: Inhibition by soluble peptides of G361 cell attachment to immobilized rCBD of TS1. The format is cell-based, human. The note with it: for inhibition of G361 cell attachment to rCBD (in words): soluble peptide inhibitor, immobilized rCBD. Here is the method:
FIGS. 3A and 3B show the effect of the active subpeptides of C4 and C7 on G361 cell attachment to the rCBD of TS1. To microtiter wells containing immobilized rCBD (10 μg/ml), G361 cells were added with (FIG. 3A) 4N1-1 (●), 7N3-1 (▪), 4N1-1 plus 7N3-1 (▴) and with (FIG. 3B) 4N1 (▪), 7N3 (●) and 4N1 plus 7N3 (▴). The cells were incubated for 1.5 hr in the wells and cell attachment was determined. The effects of these subpeptides on cell attachment are expressed as percent relative to the maximum cell attachment for each test where 100% is the number of cells binding to rCBD-coated well in the absence of peptide inhibitors.
After blocking, cells were allowed to attach for 1 hr at 37° C. to substrate-coated wells or beads. In some tests, inhibition was determined by adding peptide inhibitors of cell attachment to each well along with the cells. After removal of non-adhering cells, cells attached to immobilized substrates were quantitated with endogenous cellular phosphatase activity which is measured by absorption at 410 nm as previously described (Prater et al., 1991). Each assay was carried out in duplicate and each peptide was tested in 3 separate tests at 3 or more different concentrations.
To be sure that the active peptides from C4 and C7 contain the sequences that are relevant for attachment of cells to the CBD, the shorter, more soluble active peptides were tested as soluble inhibitors of the binding of G361 cells to rCBD immobilized on plastic wells. […] In contrast, 4N1-1 and 4N1, the active subpeptides for C4, are insoluble at concentrations higher than 0.2 mM and thus must be tested as soluble inhibitors at concentrations below this solubility limit. It should be noted that inclusion of peptides in the cell attachment assay at these concentrations had no adverse effects on the cells. The results of this complementary bioassay confirmed those of the direct cell adhesion assays (FIGS. 1 and 2). […] The inhibition was dose-dependent at peptide concentrations <0.1 mM for 4N1 and 7N3 and <0.2 mM for 4N1-1 and 7N3-1. […] Each peptide is present at ½ the indicated concentration. In the case of 4N1 plus 7N3, the inhibition was nearly complete (87%). […] To evaluate the contribution of adjacent sequences to activity, peptide 7N2-2 which contained the N-terminal sequence of 7N3-1, and 7N3-1 were examined in inhibition studies.

The test system of data set [2] is K562 human erythroleukemia cells. Nature of the data set: Attachment of K562 cells to immobilized TS1, LM or rCBD. It counts as cell-based. The note with it: protein-coated wells. Here is the method: (§1) FIGS. 6A, 6B, 6C and 6D show the attachment of four cell types to immobilized TS-1 and LM. Wells were coated with the indicated concentrations of TS1 (▪) or LM (●). Assays were performed as described under “Methods” hereinafter with (FIG. 6A)—G361 human melanomas; (FIG. 6B)—K562 erythroleukemia cells; (FIG. 6C)—HT1080 fibrosarcomas; and (FIG. 6D)—C32 amelanotic melanomas added to the wells.
(§2) Cell Adhesion Assay—Cell adhesion was performed in 96-well plates by conventional procedures as previously described (Prater et al., 1991; Kosfeld and Frazier, 1992). Synthetic peptides were solubilized with 6 N guanidine HCl (GnHCl) because some hydrophobic peptides were insoluble at concentrations approaching 1 mM in TBS. […] The efficiency of coupling of all peptides was greater than 90% as judged by UV absorbance. […]
(§3) After blocking, cells were allowed to attach for 1 hr at 37° C. to substrate-coated wells or beads. In some tests, inhibition was determined by adding peptide inhibitors of cell attachment to each well along with the cells. After removal of non-adhering cells, cells attached to immobilized substrates were quantitated with endogenous cellular phosphatase activity which is measured by absorption at 410 nm as previously described (Prater et al., 1991). […]

A short description of a further data set: Solubility of peptides. The format is physicochemical. The note with it: for solubility: insoluble at higher concentrations, read-out: solubility limit.
For data set [3], the system named is G361 cells. Nature of the data set: Direct attachment of G361 cells to peptides adsorbed on microtiter wells (cell adhesion assay). The format is cell-based, human. The conditions noted are these: peptide adsorbed to plastic wells; cells 1 hr at 37° C.; in words. Here is the method:
Equimolar concentrations of peptides shown in FIG. 1A were evaluated as attachment factors for G361 cells. Peptides C4 (¤), 4N (●), 4N1 (▴), 4N1-1 (♦), 4N2 (▪) and 4C ([formula]) were adsorbed to microtiter plates at the indicated concentrations. Cells were added to the wells and incubated for 1 hour at 37° C. The attached cells were quantitated as described under “Materials and Methods” hereinbelow, and the actual absorbance due to endogenous cellular phosphatase hydrolysis of p-Nitrophenyl phosphate at 410 nm is plotted.
Microtiter wells were adsorbed with peptides C7 (▪), 7N (●), 7N3 (▴), 7N3-1 (♦), 7N2 (▪), 7N2-2 (∘), 7N3-2 (▴) and 7C, 7N1 or 7N2-1 ([formula]) at various concentrations and the attachment of G361 cells was determined. The numbers of cells attached to these peptides were correlated with the cellular phosphatase activity which is expressed as absorbance at 410 nm.
Cell Adhesion Assay—Cell adhesion was performed in 96-well plates by conventional procedures as previously described (Prater et al., 1991; Kosfeld and Frazier, 1992). […] The efficiency of coupling of all peptides was greater than 90% as judged by UV absorbance. […]
After blocking, cells were allowed to attach for 1 hr at 37° C. to substrate-coated wells or beads. In some tests, inhibition was determined by adding peptide inhibitors of cell attachment to each well along with the cells. […]

In another data set the test system is G361 human melanomas. Nature of the data set: Attachment of G361 cells to immobilized TS1 or LM. It counts as cell-based. The note with it: protein-coated wells. The protocol:
as §1, §2, §3

The subject of another data set is C32 human melanoma. The data set is described as follows: Attachment of C32 cells to immobilized TS1 or LM. The format is cell-based. The note with it: protein-coated wells. The protocol: as §1, §2, §3
Data set [4] concerns HT1080 human fibrosarcomas. The data set is described as follows: Attachment of HT1080 cells to immobilized TS1 or LM. The format is cell-based. The conditions noted are these: protein-coated wells. The protocol:
as §1, §2, §3

The target of data set [5] is thrombospondin 1 (TS1) receptor.
For data set [6] the target is unchanged. The source holds these as a separate data set.
Data set [7] shares this target. This is another data set of the same source.

Consider Ile-Glu-Val-Val-Met (IEVVM), for which the “inhibition of G361 cell attachment to rCBD (in words)” value (from here on “inhibition … (in words)”) with G361 cells [1] is “inactive”.
With “rCBD: recombinant COOH-terminal cell binding domain of TS1 expressed in bacteria as protein A-CBD fusion protein”, the “attachment of K562 cells to immobilized protein” value in data set [2] is recorded as “bound well”.
The term solubility denotes the dissolved amount per volume that the medium holds. Turning to `CSCC[C@H](NC(=O)[C@@H](NC(=O)[C@@H](NC(=O)[C@H](Cc1ccc(O)cc1)NC(=O)[C@H](Cc1ccccc1)NC(=O)[C@@H](N)CCCNC(=N)N)C(C)C)C(C)C)C(=O)N[C@@H](Cc1c[nH]c2ccccc12)C(=O)N[C@@H](CCCCN)C(=O)O` [4N1-1, Arg-Phe-Tyr-Val-Val-Met-Trp-Lys], in “Solubility of peptides”, the solubility was ≤ 200 µM.
On to `CC[C@H](C)[C@H](N)C(=O)N[C@@H](CCCNC(=N)N)C(=O)N[C@H](C(=O)N[C@H](C(=O)N[C@@H](CCSC)C(=O)O)C(C)C)C(C)C` [7N3-1, Ile-Arg-Val-Val-Met] (H-IRVVM-OH; N-terminus and C-terminus assumed), for which, in “Solubility of peptides”, the “solubility (in words)” value is “highly soluble”.
For the molecule Ile-Arg-Val-Val-Gly (IRVVG), in the data set on G361 cells [1], the “inhibition … (in words)” value is “inactive”.
FIRVVMYEGKK [7N3]: the “cell attachment activity (direct attachment of G361 cells to immobilized peptide)” value with G361 cells [3] is “significant activity”. Further, in the data set with G361 cells [1] (rCBD 10 μg/ml immobilized, soluble peptide, combinations: each peptide at ½ the indicated concentration), the “inhibition of G361 cell attachment to rCBD-coated surfaces” value is reported as ~50%.
Take “TS1: thrombospondin 1, extracellular matrix protein”: in the data set with G361 human melanomas, the “attachment of G361 cells to immobilized protein” value was “bound well”. Also, the “attachment of K562 cells to immobilized protein” value in data set [2] was “much more avidly than to LM”. For the same molecule, the “attachment of C32 cells to immobilized protein” value in the data set on C32 human melanoma is on record as “much more avidly than to LM”. Also, the “attachment of HT1080 cells to immobilized protein” value in [4] is “bound well”.
With RFYVVM [4N1-2], the “cell attachment activity (direct attachment of G361 cells to immobilized peptide)” value in the data set with G361 cells [3] is recorded as “little or no activity”. Besides, the “inhibition … (in words)” value in the data set with G361 cells [1] is on record as “as potent as the longer 4N1-1; also recorded: active”.
Turning to `CSCC[C@H](NC(=O)[C@@H](NC(=O)[C@@H](NC(=O)[C@H](Cc1ccc(O)cc1)NC(=O)[C@H](Cc1ccccc1)NC(=O)[C@@H](N)CCCNC(=N)N)C(C)C)C(C)C)C(=O)N[C@@H](Cc1c[nH]c2ccccc12)C(=O)N[C@@H](CCCCN)C(=O)N[C@@H](CCC(N)=O)C(=O)N[C@H](C(=O)N[C@H](C(=O)N[C@@H](CCC(N)=O)C(=O)N[C@@H](CO)C(=O)O)[C@@H](C)O)C(C)C` [4N1, Arg-Phe-Tyr-Val-Val-Met-Trp-Lys-Gln-Val-Thr-Gln-Ser] (H-RFYVVMWKQVTQS-OH; N-terminus and C-terminus assumed), the solubility in “Solubility of peptides” is ≤ 200 µM.
In the case of Gly-Arg-Val-Val-Met (GRVVM), the “inhibition … (in words)” value with G361 cells [1] is “inactive”.
IRVVM [7N3-1] had an inhibition of G361 cell attachment to LM-coated wells in the data set with LM receptor of 50 % inhibition. The inhibition of K562 cell attachment to immobilised rCBD in [5] turned out to be 28 % inhibition. The inhibition of G361 cell attachment to rCBD-coated wells in data set [6] was found to be 25 % inhibition.
As for RFYVVMWK [4N1-1], the inhibition of G361 cell attachment to LM-coated wells with LM receptor came to 32 % inhibition. Besides, the attachment of G361 cells to peptide adsorbed to microtiter wells (absorbance at 410 nm) (% of the maximum activity of 4N1) in [7] was determined as 60. In data set [5], the inhibition of K562 cell attachment to immobilised rCBD was determined as 36 % inhibition. The molecule also yielded an inhibition of G361 cell attachment to rCBD-coated wells in data set [6] of 30 % inhibition.
In data set [6], RFYVVMWKQVTQS [4N1] showed an inhibition of G361 cell attachment to rCBD-coated wells of 30 % inhibition.
Same read-out and setting: the same measure for FIRVVMYEGKK [7N3]: 50 % inhibition.
